Experimental data: ChEMBL document CHEMBL1250491, “Multivariate QSAR study on the antimutagenic activity of flavonoids against 3-NFA on Salmonella typhimurium TA98” (2010)

System: Salmonella typhimurium
Test: Antimutagenic activity in Salmonella Typhimurium TA98 assessed as inhibition of 3-nitrofluoranthene-induced mutation by Ames test
Format: functional, Salmonella enterica subsp. enterica serovar Typhimurium

Row | SMILES | pID50
1 | COc1ccccc1-c1cc(=O)c2ccccc2o1 | 5.046
2 | COc1ccc2oc(-c3ccccc3)c(O)c(=O)c2c1 | 5.62
3 | O=c1cc(-c2ccccc2)oc2cccc(O)c12 [5-HYDROXYFLAVONE] | 5.357
4 | O=c1cc(-c2ccccc2)oc2ccc(O)cc12 [6-HYDROXYFLAVONE] | 6.699
5 | O=c1cc(-c2ccccc2)oc2cc(O)ccc12 [7-HYDROXYFLAVONE] | 5.456
6 | O=c1cc(-c2ccc(O)cc2)oc2cc(O)cc(O)c12 [APIGENIN] | 7
7 | O=c1cc(-c2ccc(O)cc2)oc2cc(O[C@@H]3O[C@H](CO)[C@@H](O)[C@H](O)[C@H]3O)cc(O)c12 [APIGETRIN] | 5.62
8 | O=c1cc(-c2ccccc2)oc2cc(O)cc(O)c12 [CHRYSIN] | 6
9 | O=c1c(O)c(-c2ccccc2)oc2ccccc12 [FLAVONOL] | 6.538
10 | O=c1cc(-c2ccc(O)c(O)c2)oc2cc(O[C@@H]3O[C@H](CO)[C@@H](O)[C@H](O)[C@H]3O)cc(O)c12 [GALUTEOLIN] | 5.092
11 | COc1ccc([C@@H]2CC(=O)c3c(O)cc(O)cc3O2)cc1O [HESPERETIN] | 6.097
12 | COc1cc(-c2oc3cc(O)cc(O)c3c(=O)c2O)ccc1O [ISORHAMNETIN] | 6.097
13 | O=c1c(O)c(-c2ccc(O)cc2)oc2cc(O)cc(O)c12 [KAEMPFEROL] | 6.538
14 | O=c1c(O)c(-c2ccc(O)cc2O)oc2cc(O)cc(O)c12 [MORIN] | 6.155
15 | O=c1c(O)c(-c2cc(O)c(O)c(O)c2)oc2cc(O)cc(O)c12 [MYRICETIN] | 6.222
16 | O=C1C[C@@H](c2ccc(O)cc2)Oc2cc(O)cc(O)c21 [NARINGENIN] | 5.886
17 | O=c1c(O)c(-c2ccc(O)c(O)c2)oc2cc(O)cc(O)c12 [QUERCETIN] | 5.143
18 | C[C@@H]1O[C@@H](OC[C@H]2O[C@@H](Oc3c(-c4ccc(O)c(O)c4)oc4cc(O)cc(O)c4c3=O)[C@H](O)[C@@H](O)[C@@H]2O)[C@H](O)[C@H](O)[C@H]1O [RUTIN] | 5.022
19 | COc1ccc(-c2cc(=O)c3c(OC)c(OC)c(OC)c(OC)c3o2)cc1 [TANGERETIN] | 4.967
